From patent US20040191287A1, “Fumigation process for stored food grains” (priority 2003, published 2004)

Key:
Rhyzopertha dominica = assay: whole plant or invertebrate; conditions: Rhyzopertha dominica, read-out: Mortality (%) (Mean ± SD)
Experimental: (§1) Cryptolestes sp. was reared on wheat feed. S. oryzae, Cryptolestes sp. and T. castaneum cultures were maintained at 25±1° C. and 70% RH whereas R. dominica cultures were maintained at 30±1° C. and 70% RH. From the established cultures, 2-week-old adults were taken and counted into 10 cm×2.3 cm size test tubes at 50 per replicate. The mouth of the tube was closed with a cloth piece held by small rubber ring. The insects were exposed to a range of doses (10 to 100 mg/litre) of esters for 24 hours in 0.85-liter desicators at the laboratory temperature of 26±2° C. Pure grade esters including allyl acetate, butyl acetate, ethyl acetoacetate, isopropyl acetate and propyl acetate were procured from Merck India Ltd. In each desiccator a 9 cm diameter Whatman No. 1 filter circle was placed; the filter circle acted as evaporating surface for the injected liquids (esters). Required quantity of the ester was drawn from the bottles using 10, 25 or 50 micro litre liquid syringe. There were 6 replicates for each dose with equal number of replicates for untreated control. The exposure period in all cases was 24 hours. […] Insect mortality was assessed after 14 days. Corrected mortality was arrived at based on Abbott's formula (1925).

Sitophilus oryzae = assay: whole plant or invertebrate; conditions: Sitophilus oryzae, read-out: Mortality (%) (Mean ± SD)
Experimental: as §1

Tribolium castaneum = assay: whole plant or invertebrate; conditions: Tribolium castaneum, read-out: Mortality (%) (Mean ± SD)
Experimental: as §1

human beings = conditions: cited from earlier work
[1] = cited from earlier work

Compound	mortality at 10 µg/mL (Rhyzopertha dominica) [%]	mortality at 20 µg/mL (Rhyzopertha dominica) [%]	mortality at 30 µg/mL (Rhyzopertha dominica) [%]	mortality at 50 µg/mL (Rhyzopertha dominica) [%]	mortality at 100 µg/mL (Rhyzopertha dominica) [%]	mortality at 10 µg/mL (Sitophilus oryzae) [%]	mortality at 20 µg/mL (Sitophilus oryzae) [%]	mortality at 30 µg/mL (Sitophilus oryzae) [%]	mortality at 50 µg/mL (Sitophilus oryzae) [%]	mortality at 100 µg/mL (Sitophilus oryzae) [%]	mortality at 10 µg/mL (Tribolium castaneum) [%]	mortality at 20 µg/mL (Tribolium castaneum) [%]	mortality at 30 µg/mL (Tribolium castaneum) [%]	mortality at 50 µg/mL (Tribolium castaneum) [%]	mortality at 100 µg/mL (Tribolium castaneum) [%]	toxicity to human beings (human beings)	Solubility in water [1]	vapour pressure ([1]; at 25° C.)
CCCCOC(C)=O [Butyl acetate, butyl acetate]	1.6 ± 3.5	0	0.2 ± 0.7	20.9 ± 26.8	100	8.3 ± 12.3	1.7 ± 2.4	3.2 ± 4.5	67.3 ± 7.7	100	2 ± 2.6	2.1 ± 1.1	0.6 ± 1.1	13.9 ± 0.8	96.2 ± 0.8	–	–	–
CCOC(=O)CC(C)=O [Ethyl acetoacetate, ethyl acetoacetate]	0	0	5.7 ± 10.4	8.6 ± 17.1	0.4 ± 0.9	3.1 ± 6.9	4.7 ± 7.1	5.1 ± 5.7	6.5 ± 5.5	15.8 ± 14	0.6 ± 2.6	0.8 ± 1.1	0.3 ± 1.1	0.7 ± 0.8	1.3 ± 0.8	–	–	–
CC(=O)OC(C)C [Isopropyl acetate, isopropyl acetate]	4.4 ± 6.9	8.9 ± 10.7	6.1 ± 6.7	39.2 ± 8.2	100	5.5 ± 6.9	2.3 ± 5.6	3.7 ± 7.56	47.1 ± 31.2	100	0.3 ± 0.6	1.3 ± 1.7	32.7 ± 44.1	66.5 ± 27.7	100	–	–	–
CCCOC(C)=O [Propyl acetate, propyl acetate]	2 ± 4	7.3 ± 10	5.3 ± 10.6	65.4 ± 40	100	2.4 ± 3.8	0.5 ± 1.3	14.2 ± 8.1	74.3 ± 20.2	100	0.9	0.9	12.6 ± 21.2	83.2 ± 26.3	100	–	–	–
N#CC#N [cyanogen, reference compound]	–	–	–	–	–	–	–	–	–	–	–	–	–	–	–	highly toxic	highly water-soluble	–
O=S(=O)(F)F [sulfuryl fluoride, reference compound]	–	–	–	–	–	–	–	–	–	–	–	–	–	–	–	–	–	13,442 mm of Hg
